Reference: the OPERA property sets (Mansouri et al. 2018)

| logP | Structure (SMILES) |
| --- | --- |
| 1.03 | COc1cc(OC)c(S(=O)(=O)c2ccc(N)cc2)c(OC)c1 |
| 3.06 | Cc1cc(C)c(S(=O)(=O)c2ccc(N)cc2)c(C)c1 |
| 2.71 | Cc1ccc(S(=O)(=O)c2ccc(N)cc2)c(C)c1 |
| 1.99 | CN(C)c1ccc(S(=O)(=O)c2ccc(N)cc2)cc1 |
| 1.56 | Nc1ccc(S(=O)(=O)c2ccccc2N)cc1 |
| 2.85 | Nc1ccc(S(=O)(=O)c2ccc(Br)cc2)cc1 |
| 2.4 | Cc1ccc(S(=O)(=O)c2ccc(N)cc2)cc1 |
| 1.96 | COc1ccc(S(=O)(=O)c2ccc(N)cc2)cc1 |
| 0.38 | Nc1ccc(S(=O)(=O)c2ccc(N)cc2N)cc1 |
| 3.12 | Nc1ccc(S(=O)(=O)c2ccc(Cl)cc2Cl)cc1 |
| 1.57 | Nc1ccc(S(=O)(=O)c2ccc(O)cc2)cc1 |
| 1.64 | COc1ccc(S(=O)(=O)c2ccc(N)cc2)c(OC)c1 |
| 1.29 | Nc1ccc(S(=O)(=O)c2ccc(O)cc2O)cc1 |
| 2.57 | Nc1ccc(S(=O)(=O)c2ccc(Cl)cc2)cc1 |
| 1.03 | Nc1ccc(S(=O)(=O)c2cccc(N)c2)cc1 |

Second part, the compound before the results:

| Structure (SMILES) | logP |
| --- | --- |
| Nc1ccc(S(=O)(=O)c2ccc(NO)cc2)cc1 | 0.88 |
| Nc1ccc(S(=O)(=O)c2ccc([N+](=O)[O-])cc2[N+](=O)[O-])cc1 | 1.84 |
| CC(=O)c1ccc(S(=O)(=O)c2ccc(N)cc2)cc1 | 1.67 |
| NC(=O)c1ccc(S(=O)(=O)c2ccc(N)cc2)cc1 | 0.9 |
| CCNc1ccc(S(=O)(=O)c2ccc(N)cc2)cc1 | 1.98 |
| Nc1ccc(S(=O)(=O)c2ccccc2)cc1 | 1.76 |
| Nc1ccc(S(=O)(=O)c2ccc([N+](=O)[O-])cc2)cc1 | 2.04 |
| CCN(CC)C(=O)c1ccc(S(=O)(=O)c2ccc(N)cc2)cc1 | 1.44 |
| CCN(CC)c1ccc(S(=O)(=O)c2ccc(N)cc2)cc1 | 3 |
| COC(=O)c1ccc(S(=O)(=O)c2ccc(N)cc2)cc1 | 2.13 |
| N#Cc1ccc(S(=O)(=O)c2ccc(N)cc2)cc1 | 1.63 |
